Results: PMC11470524, “A venom peptide-induced NaV channel modulation mechanism involving the interplay between fixed channel charges and ionic gradients” (The Journal of Biological Chemistry, 2024)
Read-outs that look alike come from different tables or passages of the source. Where no end group is shown, it is not given here.

Legend:
[1] = system: NaV channels; conditions: cited from earlier work
[2] = biological target: T1, human NaV1.7 channel (Homo sapiens, UniProt Q15858); assay: Cumulative concentration-response, persistent (non-inactivating) current I40ms/Ipeak, NaV1.7; assay type: cell-based; conditions: NaV1.7, HEK293, ratio of current at 40 ms to peak current, mean ± SD
[3] = biological target: T1, human NaV1.7 channel; assay: Whole-cell current-voltage (I-V) relationship, NaV1.7, standard solution; assay type: cell-based
Procedure: Data are expressed as mean ± SD.
Whole-cell current-voltage (I-V) recordings were recorded with an EPC 10 USB Heka patch clamp amplifier or an Axon 700B amplifier (Axon Instruments). Currents were filtered (−3 dB, 4-pole Bessel) at 2 kHz and sampled at 50 kHz. […] Leak subtraction was done using a p/4 protocol (4 pulses at a delay of 100 μs). Cell responses were accepted for analysis if the series resistance was ≤ 12 MΩ and was compensated for by ≥ 60%. […] The extracellular solution contained (in mM): 140 NaCl, 5 KCl, 1 MgCl2, 10 Hepes, and 10 D-glucose, adjusted to pH 7.4 with NaOH, whereas the intracellular solution contained (in mM) the following: 140 CsCl, 10 NaCl, 2 10 Hepes, and 5 EGTA adjusted to pH 7.4 with CsOH.
Whole-cell conductance (G) was calculated using the following relation.(1) G=I/(Vm−Vrev) Where, I is the peak current, Vm is the corresponding step voltage and Vrev is the reversal potential (potential where current direction changes).

T1 sequence (Q15858 whole entry): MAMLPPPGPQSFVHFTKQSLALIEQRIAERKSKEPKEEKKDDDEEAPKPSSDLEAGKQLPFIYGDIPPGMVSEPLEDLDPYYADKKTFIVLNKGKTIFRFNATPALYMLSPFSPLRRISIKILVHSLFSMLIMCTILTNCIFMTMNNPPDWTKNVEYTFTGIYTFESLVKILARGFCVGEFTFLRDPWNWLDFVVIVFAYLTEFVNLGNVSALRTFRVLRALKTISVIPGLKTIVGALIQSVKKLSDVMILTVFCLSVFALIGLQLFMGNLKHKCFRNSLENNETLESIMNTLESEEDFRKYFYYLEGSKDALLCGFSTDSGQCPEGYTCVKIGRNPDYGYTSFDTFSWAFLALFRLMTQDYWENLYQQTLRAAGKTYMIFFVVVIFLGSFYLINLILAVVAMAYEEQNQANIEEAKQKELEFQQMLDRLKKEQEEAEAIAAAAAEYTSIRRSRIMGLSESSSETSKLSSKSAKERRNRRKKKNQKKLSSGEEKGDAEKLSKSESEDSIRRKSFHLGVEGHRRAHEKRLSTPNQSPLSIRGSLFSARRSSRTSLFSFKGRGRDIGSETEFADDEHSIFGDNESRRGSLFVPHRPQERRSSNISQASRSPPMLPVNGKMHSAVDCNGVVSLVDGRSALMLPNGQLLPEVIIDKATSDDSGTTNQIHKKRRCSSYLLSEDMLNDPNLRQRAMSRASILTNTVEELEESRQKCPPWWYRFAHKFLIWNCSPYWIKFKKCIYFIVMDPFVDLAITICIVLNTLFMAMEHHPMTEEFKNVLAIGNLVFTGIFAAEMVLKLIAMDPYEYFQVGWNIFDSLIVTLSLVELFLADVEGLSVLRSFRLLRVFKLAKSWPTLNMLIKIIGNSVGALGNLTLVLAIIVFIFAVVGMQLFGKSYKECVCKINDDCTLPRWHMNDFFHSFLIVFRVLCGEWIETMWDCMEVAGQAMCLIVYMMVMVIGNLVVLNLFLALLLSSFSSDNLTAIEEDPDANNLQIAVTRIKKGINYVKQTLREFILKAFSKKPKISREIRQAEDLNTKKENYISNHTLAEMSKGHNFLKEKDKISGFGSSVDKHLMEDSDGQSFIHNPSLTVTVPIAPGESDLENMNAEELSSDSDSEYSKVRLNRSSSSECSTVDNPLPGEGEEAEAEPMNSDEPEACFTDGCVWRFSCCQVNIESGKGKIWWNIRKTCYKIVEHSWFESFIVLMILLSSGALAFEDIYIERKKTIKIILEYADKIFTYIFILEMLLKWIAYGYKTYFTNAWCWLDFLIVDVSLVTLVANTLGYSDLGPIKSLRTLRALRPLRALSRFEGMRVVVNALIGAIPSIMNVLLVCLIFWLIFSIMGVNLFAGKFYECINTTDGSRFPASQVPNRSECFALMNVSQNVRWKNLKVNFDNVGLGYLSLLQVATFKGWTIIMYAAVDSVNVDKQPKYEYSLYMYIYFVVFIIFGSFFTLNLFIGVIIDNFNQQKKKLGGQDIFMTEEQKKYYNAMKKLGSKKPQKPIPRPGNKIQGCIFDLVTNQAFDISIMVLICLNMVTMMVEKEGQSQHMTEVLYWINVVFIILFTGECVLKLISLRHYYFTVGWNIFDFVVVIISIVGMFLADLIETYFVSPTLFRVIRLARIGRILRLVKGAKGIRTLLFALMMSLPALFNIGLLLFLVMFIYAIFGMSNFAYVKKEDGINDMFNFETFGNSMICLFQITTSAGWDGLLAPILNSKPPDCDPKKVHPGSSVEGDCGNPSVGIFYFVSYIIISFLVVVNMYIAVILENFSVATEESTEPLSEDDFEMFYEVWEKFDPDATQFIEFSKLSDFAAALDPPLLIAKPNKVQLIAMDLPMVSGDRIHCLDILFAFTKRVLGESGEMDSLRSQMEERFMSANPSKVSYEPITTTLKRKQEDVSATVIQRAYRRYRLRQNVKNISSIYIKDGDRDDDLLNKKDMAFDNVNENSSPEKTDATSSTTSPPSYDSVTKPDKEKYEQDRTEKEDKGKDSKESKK

## huwentoxin-IV
[1]; ref [20], [21]
  Effect on NaV channels: inhibit NaV channel currents by stabilizing S4 helices in the resting state

## LAPIFALLLLSGLFSLPALQHYIAANYIN-NH2 [Ta3a[E24A + K25A]]
[2]
  Efficacy (maximum response), I40ms/Ipeak: 0.35 ± 0.33
[3]; 30 nM analog, n = 4 cells
  I-V profile versus control: indistinguishable from control
[3]; 1 μM analog, n = 7 cells
  Leftward shift of V1/2: −4.5 mV
  Leftward shift of Vrev: −28 mV
  Reduction in peak current: ~2 fold

## ProTx-II: tarantula toxin
[1]; ref [20], [21]
  Effect on NaV channels: inhibit NaV channel currents by stabilizing S4 helices in the resting state

## COc1ccc(C(=O)O[C@H]2CC[C@@]3(C)[C@@H]4CC[C@H]5[C@]6(O)C[C@H](O)[C@@]7(O)[C@@H](CN8C[C@@H](C)CC[C@H]8[C@@]7(C)O)[C@]6(O)C[C@@]53O[C@]24O)cc1OC [veratridine]
[1]; ref [15], [17], [18]
  Effect on NaV channels: direct channel activators (agonists)

## batrachotoxin
[1]; ref [15], [17], [18]
  Effect on NaV channels: direct channel activators (agonists)
[1]; ref [15], [17]
  Effect on ion selectivity: alter ion selectivity
